Reference: patent publication US20230139171A1 (SITA Information Networking Computing UK Limited, priority 2019, published 2023)

Key:
Assay type in all cases: cell-based
human TLR8 = molecular target: T1, human TLR8 (Homo sapiens, UniProt Q9NR97); experiment: TLR8 inhibition reporter assay (HEK-Blue cells, SEAP reporter, R848 stimulation); conditions: HEK-Blue cells overexpressing human TLR8, SEAP reporter, R848 15.9 μM; read-out: TLR8 IC50
T1 construct: host or cells: HEK-Blue cells
T1 sequence (Q9NR97 27-1041): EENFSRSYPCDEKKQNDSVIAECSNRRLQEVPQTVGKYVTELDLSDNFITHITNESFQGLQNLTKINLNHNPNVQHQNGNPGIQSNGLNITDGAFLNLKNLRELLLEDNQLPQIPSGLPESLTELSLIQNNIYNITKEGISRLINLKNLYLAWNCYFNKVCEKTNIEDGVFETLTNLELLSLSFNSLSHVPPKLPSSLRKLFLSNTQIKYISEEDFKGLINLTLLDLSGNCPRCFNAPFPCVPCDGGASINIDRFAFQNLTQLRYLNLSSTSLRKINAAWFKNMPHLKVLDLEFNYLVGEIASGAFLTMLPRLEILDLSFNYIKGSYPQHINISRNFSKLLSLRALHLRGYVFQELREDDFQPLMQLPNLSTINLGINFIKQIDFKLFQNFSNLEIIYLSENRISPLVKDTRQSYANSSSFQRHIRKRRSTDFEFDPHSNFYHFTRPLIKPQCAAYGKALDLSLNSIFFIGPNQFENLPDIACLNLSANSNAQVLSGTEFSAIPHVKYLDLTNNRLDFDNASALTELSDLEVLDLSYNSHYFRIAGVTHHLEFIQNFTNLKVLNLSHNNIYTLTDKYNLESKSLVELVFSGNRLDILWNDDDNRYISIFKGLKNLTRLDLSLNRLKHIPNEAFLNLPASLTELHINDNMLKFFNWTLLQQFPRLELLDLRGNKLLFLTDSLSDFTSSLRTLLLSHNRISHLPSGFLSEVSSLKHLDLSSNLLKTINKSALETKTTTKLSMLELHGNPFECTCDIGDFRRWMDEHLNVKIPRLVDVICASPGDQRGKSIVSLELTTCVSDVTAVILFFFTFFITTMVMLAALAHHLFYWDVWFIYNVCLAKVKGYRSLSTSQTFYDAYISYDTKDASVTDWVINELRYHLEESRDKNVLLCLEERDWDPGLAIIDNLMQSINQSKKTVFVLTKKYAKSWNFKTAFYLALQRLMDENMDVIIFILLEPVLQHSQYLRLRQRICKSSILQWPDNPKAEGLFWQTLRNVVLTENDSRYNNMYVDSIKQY
Method in brief: (§1)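 Human TLR7/8/9 HEK-Blue reporter lines; dose range 0.05 nM–50 μM; 30 min RT preincubation; stimulus gardiquimod 7.5 μM / R848 15.9 μM / ODN2006 5 nM respectively; 22 h, 37 °C; SEAP detected colorimetrically.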

human TLR7 = molecular target: T2, human TLR7 (Homo sapiens, UniProt Q9NYK1); experiment: TLR7 inhibition reporter assay (HEK-Blue cells, SEAP reporter, gardiquimod stimulation); conditions: HEK-Blue cells overexpressing human TLR7, SEAP reporter, gardiquimod 7.5 μM; read-out: TLR7 IC50
T2 construct: host or cells: HEK-Blue cells
T2 sequence (Q9NYK1 27-1049): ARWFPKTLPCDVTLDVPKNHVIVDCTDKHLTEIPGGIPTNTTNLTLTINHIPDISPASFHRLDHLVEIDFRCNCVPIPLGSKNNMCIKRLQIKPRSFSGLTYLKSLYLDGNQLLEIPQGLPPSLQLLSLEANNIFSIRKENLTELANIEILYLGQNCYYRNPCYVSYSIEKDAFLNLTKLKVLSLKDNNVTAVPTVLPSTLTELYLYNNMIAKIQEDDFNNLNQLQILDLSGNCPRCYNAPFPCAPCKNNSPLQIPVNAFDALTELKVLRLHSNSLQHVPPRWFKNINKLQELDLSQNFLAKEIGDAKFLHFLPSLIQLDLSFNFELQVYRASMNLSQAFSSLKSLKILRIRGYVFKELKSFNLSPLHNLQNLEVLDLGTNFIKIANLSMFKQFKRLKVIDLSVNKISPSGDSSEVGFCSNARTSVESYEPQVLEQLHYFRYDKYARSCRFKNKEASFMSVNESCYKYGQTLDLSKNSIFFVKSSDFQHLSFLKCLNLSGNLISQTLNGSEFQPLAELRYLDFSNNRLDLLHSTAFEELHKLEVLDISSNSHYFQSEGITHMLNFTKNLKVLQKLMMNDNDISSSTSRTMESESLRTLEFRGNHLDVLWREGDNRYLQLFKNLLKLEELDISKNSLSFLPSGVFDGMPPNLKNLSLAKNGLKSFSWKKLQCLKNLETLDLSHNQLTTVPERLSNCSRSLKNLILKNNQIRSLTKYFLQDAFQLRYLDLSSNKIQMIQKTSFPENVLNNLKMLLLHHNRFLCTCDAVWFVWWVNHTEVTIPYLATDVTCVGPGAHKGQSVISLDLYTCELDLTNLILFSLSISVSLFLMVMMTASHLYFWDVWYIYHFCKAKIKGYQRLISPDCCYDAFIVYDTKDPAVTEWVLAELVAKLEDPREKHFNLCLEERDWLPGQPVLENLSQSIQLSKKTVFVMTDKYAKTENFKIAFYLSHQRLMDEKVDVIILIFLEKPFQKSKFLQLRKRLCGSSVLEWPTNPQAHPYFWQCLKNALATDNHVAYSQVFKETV
Method in brief: as §1

human TLR9 = molecular target: T3, human TLR9 (Homo sapiens, UniProt Q9NR96); experiment: TLR9 inhibition reporter assay (HEK-Blue cells, SEAP reporter, ODN2006 stimulation); conditions: HEK-Blue cells overexpressing human TLR9, SEAP reporter, ODN2006 5 nM
T3 construct: host or cells: HEK-Blue cells
T3 sequence (Q9NR96 26-1032): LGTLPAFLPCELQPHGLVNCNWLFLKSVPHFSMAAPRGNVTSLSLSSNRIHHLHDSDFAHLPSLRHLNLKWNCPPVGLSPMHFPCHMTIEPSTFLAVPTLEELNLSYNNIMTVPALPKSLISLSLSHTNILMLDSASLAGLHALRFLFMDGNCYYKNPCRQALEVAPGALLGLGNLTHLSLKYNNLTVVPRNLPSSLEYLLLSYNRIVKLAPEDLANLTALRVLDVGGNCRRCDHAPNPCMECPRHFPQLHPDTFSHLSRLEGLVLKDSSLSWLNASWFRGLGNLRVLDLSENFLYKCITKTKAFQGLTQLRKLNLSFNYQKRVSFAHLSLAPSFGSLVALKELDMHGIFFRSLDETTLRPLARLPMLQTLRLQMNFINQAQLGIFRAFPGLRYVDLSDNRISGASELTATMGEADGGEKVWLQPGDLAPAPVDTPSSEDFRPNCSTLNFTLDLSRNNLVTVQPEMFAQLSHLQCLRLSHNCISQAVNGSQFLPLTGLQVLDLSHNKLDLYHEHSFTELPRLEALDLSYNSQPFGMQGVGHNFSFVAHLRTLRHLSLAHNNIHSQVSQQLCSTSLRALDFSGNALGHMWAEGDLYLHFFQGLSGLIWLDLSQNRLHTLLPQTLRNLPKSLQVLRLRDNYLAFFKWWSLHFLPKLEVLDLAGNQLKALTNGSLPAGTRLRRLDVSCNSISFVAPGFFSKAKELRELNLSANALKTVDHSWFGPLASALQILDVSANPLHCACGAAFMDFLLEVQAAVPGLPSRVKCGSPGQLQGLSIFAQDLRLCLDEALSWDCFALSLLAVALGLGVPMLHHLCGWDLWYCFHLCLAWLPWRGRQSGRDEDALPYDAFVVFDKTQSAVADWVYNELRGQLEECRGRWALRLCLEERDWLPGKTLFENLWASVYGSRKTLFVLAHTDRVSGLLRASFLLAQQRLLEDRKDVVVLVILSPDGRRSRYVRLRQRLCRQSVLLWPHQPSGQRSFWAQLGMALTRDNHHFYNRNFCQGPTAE
Method in brief: as §1

Row | IC50 (human TLR8) [nM] | IC50 (human TLR7) [nM] | IC50 (human TLR9) [nM] | SMILES
1 | 26.3 | 4.96 | 17500 | Cc1cc(-c2[nH]c3sc(C4CCC(NC56CC(C5)C6)CC4)nc3c2C(C)C)cn2ncnc12 (single isomer, unassigned) [Example 139, N-(4-(6-isopropyl-5-(8-methyl-[1,2,4]triazolo[1,5-a]pyridin-6-yl)-4H-pyrrolo[3,2-d]thiazol-2-yl)cyclohexyl)bicyclo[1.1.1]pentan-1-amine]
2 | 0.89 | 0.59 | 10400 | Cc1cc(-c2[nH]c3sc(C4CCC(NCC(C)(C)O)CC4)nc3c2C(C)C)cn2ncnc12 (single isomer, unassigned) [Example 140, 1-((4-(6-isopropyl-5-(8-methyl-[1,2,4]triazolo[1,5-a]pyridin-6-yl)-4H-pyrrolo[3,2-d]thiazol-2-yl)cyclohexyl)amino)-2-methylpropan-2-ol]
3 | 13.5 | 3.03 | 12800 | Cc1cc(-c2[nH]c3sc(C4CCC(NCC(C)(C)O)CC4)nc3c2C(C)C)cn2ncnc12 (single isomer, unassigned) [Example 141, 1-((4-(6-isopropyl-5-(8-methyl-[1,2,4]triazolo[1,5-a]pyridin-6-yl)-4H-pyrrolo[3,2-d]thiazol-2-yl)cyclohexyl)amino)-2-methylpropan-2-ol]
4 | 2.7 | 2.08 | 6970 | Cc1cc(-c2[nH]c3sc(C4CCC(NCC5(CO)CC5)CC4)nc3c2C(C)C)cn2ncnc12 (single isomer, unassigned) [Example 142, (1-(((4-(6-isopropyl-5-(8-methyl-[1,2,4]triazolo[1,5-a]pyridin-6-yl)-4H-pyrrolo[3,2-d]thiazol-2-yl)cyclohexyl)amino)methyl)cyclopropyl)methanol]
5 | 19.6 | 5.34 | 9280 | Cc1cc(-c2[nH]c3sc(C4CCC(NCC5(CO)CC5)CC4)nc3c2C(C)C)cn2ncnc12 (single isomer, unassigned) [Example 143, (1-(((4-(6-isopropyl-5-(8-methyl-[1,2,4]triazolo[1,5-a]pyridin-6-yl)-4H-pyrrolo[3,2-d]thiazol-2-yl)cyclohexyl)amino)methyl)cyclopropyl)methanol]
6 | 3.56 | 7.26 | 15200 | Cc1cc2ncnn2cc1-c1[nH]c2sc(C3CCC(NC4(C)COC4)CC3)nc2c1C(C)C (single isomer, unassigned) [Example 144, N-(4-(6-isopropyl-5-(7-methyl-[1,2,4]triazolo[1,5-a]pyridin-6-yl)-4H-pyrrolo[3,2-d]thiazol-2-yl)cyclohexyl)-3-methyloxetan-3-amine]
7 | 41.6 | 60.3 | > 50000 | Cc1cc2ncnn2cc1-c1[nH]c2sc(C3CCC(NC4(C)COC4)CC3)nc2c1C(C)C (single isomer, unassigned) [Example 145, N-(4-(6-isopropyl-5-(7-methyl-[1,2,4]triazolo[1,5-a]pyridin-6-yl)-4H-pyrrolo[3,2-d]thiazol-2-yl)cyclohexyl)-3-methyloxetan-3-amine]
8 | 0.92 | 19.7 | 16300 | Cc1cc2ncnn2cc1-c1[nH]c2sc(C3CCC(N4CCCOCC4)CC3)nc2c1C(C)C (single isomer, unassigned) [Example 146, 4-(4-(6-isopropyl-5-(7-methyl-[1,2,4]triazolo[1,5-a]pyridin-6-yl)-4H-pyrrolo[3,2-d]thiazol-2-yl)cyclohexyl)-1,4-oxazepane]
9 | 5.67 | 90.1 | 18800 | Cc1cc2ncnn2cc1-c1[nH]c2sc(C3CCC(N4CCCOCC4)CC3)nc2c1C(C)C (single isomer, unassigned) [Example 147, 4-(4-(6-isopropyl-5-(7-methyl-[1,2,4]triazolo[1,5-a]pyridin-6-yl)-4H-pyrrolo[3,2-d]thiazol-2-yl)cyclohexyl)-1,4-oxazepane]
10 | 9.93 | 11.8 | > 50000 | Cc1cc2ncnn2cc1-c1[nH]c2sc(C3CCC(N4CCNC(=O)C4)CC3)nc2c1C(C)C (single isomer, unassigned) [Example 148, 4-(4-(6-isopropyl-5-(7-methyl-[1,2,4]triazolo[1,5-a]pyridin-6-yl)-4H-pyrrolo[3,2-d]thiazol-2-yl)cyclohexyl)piperazin-2-one]
11 | 98.5 | 108 | > 50000 | Cc1cc2ncnn2cc1-c1[nH]c2sc(C3CCC(N4CCNC(=O)C4)CC3)nc2c1C(C)C (single isomer, unassigned) [Example 149, 4-(4-(6-isopropyl-5-(7-methyl-[1,2,4]triazolo[1,5-a]pyridin-6-yl)-4H-pyrrolo[3,2-d]thiazol-2-yl)cyclohexyl)piperazin-2-one]
